Experimental data as given in US8455225B2, “Yeast with increased butanol tolerance involving high osmolarity/glycerol response pathway” (Butamax Advanced Biofuels LLC, priority 2008, dated 2013).

system: PBS2p over-producing strain; test: Growth yield in the presence of isobutanol, PBS2 ORF overexpressed from GAL1 promoter; assay type: cell-based, Saccharomyces cerevisiae; conditions: 1% isobutanol, PBS2p over-producing strain vs BY4741
Experimental: The effect of overexpression of the PBS2 coding region was assessed as follows. A Yeast ORF collection (Gelperin, White et al. (2005) Genes Dev. 19(23):2816-2826)_is available from Open Biosystems (Huntsville, Ala.). In this collection yeast ORFs are expressed from the GAL1 promoter in the vector BG1805. This vector can be introduced into ura3 yeast mutants and transformants selected for uracil prototrophy. In the presence of galactose and the absence of glucose, expression from the GAL1 promoter is elevated about 1000 fold relative to the barely detectable level observed with glucose grown cells (Johnston and Davis (1984) Mol. Cell. Biol. 4(8):1440-1448). Note that each ORF encodes a fusion protein of the form:
A plasmid containing the PBS2 ORF was obtained from this collection (YSC3867-9523439) and transformed into yeast strain BY4741 selecting for uracil prototrophy. […] Growth yield was measured by the following method. […] Absorbance was recorded.
Cultures were grown for 2-3 hours to allow one doubling. Absorbance was recorded at this time and was called T=0. […] OD600 was measured after incubation on a roller drum for 2 days. […] Percent growth was calculated as 100×[average A600 of the triplicate isobutanol challenged cultures/average A600 of the triplicate control cultures.

Row | Molecule | improvement in growth yield over the parental strain
1 | CC(C)CO [isobutanol] | 41%

system: PBS2 deletion strains; test: not given; conditions: homozygous deletion set screens (Fuijta et al. 2006; van Voorst et al. 2006) and other literature; cited from earlier work

Row | Molecule | hypersensitivity of PBS2 deletion strains
2 | O[C@H](CS)[C@H](O)CS (racemic) [dithiothreitol] | hypersensitive
3 | OCCS [2-mercaptoethanol] | hypersensitive
4 | [Ca+2].[Cl-].[Cl-] [CaCl2] | hypersensitive
5 | [Cl-].[Na+] [NaCl] | hypersensitive
6 | CCO [ethanol] | not found to be hypersensitive
7 | COC(=O)Nc1nc2ccc(C(=O)c3cccs3)cc2[nH]1 [nocodazole] | hypersensitive
8 | CCCCCO [pentanol] | not found to be hypersensitive
9 | CCCO [propanol] | not found to be hypersensitive
10 | O=[As][O-].[Na+] [sodium metaarsenite] | hypersensitive
11 | OC[C@@H](O)[C@@H](O)[C@H](O)[C@@H](O)CO [sorbitol] | hypersensitive
12 | tunicamycin | hypersensitive

system: haploid cells; test: not given; conditions: Lorenz et al. 2000; cited from earlier work

Row | Molecule | effect on growth morphology
13 | CCCCO [1-butanol] | stimulates filamentous growth in haploid cells

system: translation at the initiation step; test: not given; conditions: Ashe et al. 2001; cited from earlier work

Row | Molecule | effect on translation
14 | butanol | rapid inhibition of translation at the initiation step
